# Data reported in patent US10513523B2, “Imidazopyrazines and pyrazolopyrimidines and their use as AMPA receptor modulators” (Janssen Pharmaceutica NV, priority 2015, dated 2019).
# Molecular target: GluA1o-γ8 (GRIA1o-CACNG8 fusion construct; TARP γ8 dependent AMPA receptor) (Homo sapiens (Human), UniProt P42261+Q8WXS5)
# Test: Calcium flux assay (FLIPR), inhibition of glutamate response of GluA1o-γ8 channel
# Assay type: cell-based
# Settings: HEK293 cells stably expressing GRIA1o-CACNG8 fusion; 15 μM glutamate; pIC50 = negative log of IC50 in molar; read-out: GluR1-γ8 (pIC50) (converted)
# Source text: This assay was used to test compounds for their ability to inhibit TARP γ8 dependent AMPA receptor activity. The AMPA receptor is a non-selective cation channel activated by glutamate. Ionotropic glutamate receptors normally desensitize too rapidly to allow detectable calcium influx in a FLIPR assay (Strange et al. (2006). “Functional characterisation of homomeric ionotropic glutamate receptors GluR1-GluR6 in a fluorescence-based high throughput screening assay.” Comb Chem High Throughput Screen 9(2): 147-158). But, this desensitization is incomplete, and a substantial steady-state current remains in the sustained presence of glutamate (Cho et al. (2007). “Two families of TARP isoforms that have distinct effects on the kinetic properties of AMPA receptors and synaptic currents.” Neuron 55(6): 890-904).
# An in vitro assay was used to determine the potency of test compounds as inhibitors of the glutamate response of the channel formed by GluA1o-γ8. To ensure a 1:1 stoichiometry of GluA10 and γ8 subunits in the expressed channel, a fusion of the cDNAs for GRIA1o and CACNG8 was used. Following Shi et al (2009) “The stoichiometry of AMPA receptors and TARPs varies by neuronal cell type.” Neuron 62(5): […]), the C-terminus of the cDNA for GRI1o was fused to the N-terminus of the cDNA for γ8. The linker sequence was […]. […] A clonal cell line in HEK293 cells stably expressing this construct, with a geneticin selection marker, was generated for use in this assay. Cell expressing the GRIA1o-CACNG8 fusion construct were grown in a monolayer in 96- or 384-well microtiter plates. They were washed with assay buffer (135 mM NaCl, 4 mM KCl, 3 mM CaCl2, 1 mM MgCl2, 5 mM glucose, 10 mM HEPES, pH 7.4, 300 mOs) using a Biotek EL405 plate washer. The cells were then loaded with a calcium-sensitive dye (Calcium-5 or Calcium-6, Molecular Devices) and the test compounds at a range of concentrations. Calcium flux following the addition of 15 μM glutamate was monitored using a Molecular Devices FLIPR Tetra.
# The fluorescence in each well was normalized to the fluorescence of negative and positive control wells. […] The responses to glutamate as functions of the test compound concentrations were fitted to a four-parameter logistic function. The fitted parameter corresponding to the midpoint was taken to be the potency of inhibition of the compound.
# GluA1o-γ8 (GRIA1o-CACNG8 fusion construct; TARP γ8 dependent AMPA receptor), sequence (P42261 other isoform, or with tags, fused parts or gaps): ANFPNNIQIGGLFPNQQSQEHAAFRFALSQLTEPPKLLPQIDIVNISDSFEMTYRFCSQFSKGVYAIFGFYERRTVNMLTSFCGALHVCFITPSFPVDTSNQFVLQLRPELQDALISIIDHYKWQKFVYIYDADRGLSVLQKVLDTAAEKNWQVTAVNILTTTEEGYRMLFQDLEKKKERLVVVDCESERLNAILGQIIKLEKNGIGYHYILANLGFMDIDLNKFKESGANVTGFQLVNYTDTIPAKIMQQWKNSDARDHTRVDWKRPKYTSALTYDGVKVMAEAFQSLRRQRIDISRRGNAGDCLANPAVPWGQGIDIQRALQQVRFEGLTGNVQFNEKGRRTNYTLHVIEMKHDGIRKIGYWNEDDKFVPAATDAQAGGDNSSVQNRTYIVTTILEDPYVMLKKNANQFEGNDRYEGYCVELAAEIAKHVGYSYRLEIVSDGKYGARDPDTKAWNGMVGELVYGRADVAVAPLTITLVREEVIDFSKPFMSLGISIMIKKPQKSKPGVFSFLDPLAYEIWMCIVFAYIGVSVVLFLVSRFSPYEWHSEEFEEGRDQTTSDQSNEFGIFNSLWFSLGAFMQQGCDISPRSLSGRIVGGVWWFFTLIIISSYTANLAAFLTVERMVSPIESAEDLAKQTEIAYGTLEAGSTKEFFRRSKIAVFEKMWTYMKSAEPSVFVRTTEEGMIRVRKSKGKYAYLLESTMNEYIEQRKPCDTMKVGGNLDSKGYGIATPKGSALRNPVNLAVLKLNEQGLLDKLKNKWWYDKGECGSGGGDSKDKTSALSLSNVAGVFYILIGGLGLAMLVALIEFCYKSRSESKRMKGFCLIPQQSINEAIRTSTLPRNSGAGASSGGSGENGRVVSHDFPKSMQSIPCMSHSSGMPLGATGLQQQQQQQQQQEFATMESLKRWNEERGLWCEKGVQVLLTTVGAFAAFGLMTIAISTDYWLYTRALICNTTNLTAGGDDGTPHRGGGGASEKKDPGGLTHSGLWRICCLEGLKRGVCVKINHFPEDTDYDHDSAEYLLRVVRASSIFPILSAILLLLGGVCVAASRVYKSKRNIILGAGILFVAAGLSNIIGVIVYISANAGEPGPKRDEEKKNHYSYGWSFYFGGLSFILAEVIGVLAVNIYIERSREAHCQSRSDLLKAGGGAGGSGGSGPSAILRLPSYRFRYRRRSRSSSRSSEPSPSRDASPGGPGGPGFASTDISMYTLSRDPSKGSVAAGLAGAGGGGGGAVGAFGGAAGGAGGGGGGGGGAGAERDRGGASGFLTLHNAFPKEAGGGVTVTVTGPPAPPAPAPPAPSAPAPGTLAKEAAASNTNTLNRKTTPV
row,SMILES,IC50
1,"O=C1Cc2cc(-c3c(-c4ccc(F)cc4)nc4c(N5CCC6(CC5)OCCO6)nccn34)ccc2N1 [Example 55, 5-[8-(1,4-Dioxa-8-azaspiro[4.5]decan-8-yl)-2-(4-fluorophenyl)imidazo[1,2-a]pyrazin-3-yl]indolin-2-one]",0.2 nM
2,"O=C1Cc2cc(-c3c(-c4ccc(F)cc4)nc4c(N5CC(CO)C5)nccn34)ccc2N1 [Example 64, 5-[2-(4-Fluorophenyl)-8-[3-(hydroxymethyl)azetidin-1-yl]imidazo[1,2-a]pyrazin-3-yl]indolin-2-one]",0.794 nM
3,"O=C1Cc2cc(-c3c(-c4ccccc4)nc4c(N5CCC(CF)CC5)nccn34)ccc2N1 [Example 76, 5-[8-[4-(Fluoromethyl)-1-piperidyl]-2-phenyl-imidazo[1,2-a]pyrazin-3-yl]indolin-2-one]",0.251 nM
4,"O=C1Cc2cc(-c3c(-c4ccccc4)nc4c(N5CCC(F)CC5)nccn34)ccc2N1 [Example 75, 5-[8-(4-Fluoro-1-piperidyl)-2-phenyl-imidazo[1,2-a]pyrazin-3-yl]indolin-2-one]",0.0631 nM
5,"CC(C)(C)OC(=O)N1CCN(c2nccn3c(-c4ccc5c(c4)CC(=O)N5)c(Cc4ccccc4)nc23)CC1 [Example 36, tert-Butyl 4-[2-benzyl-3-(2-oxoindolin-5-yl)imidazo[1,2-a]pyrazin-8-yl]piperazine-1-carboxylate]",0.316 nM
6,"O=C1CN(c2nccn3c(-c4ccc5[nH]c(=O)[nH]c5c4)c(-c4ccc(F)cc4)nc23)CCN1 [Example 34, 5-[2-(4-Fluorophenyl)-8-(3-oxopiperazin-1-yl)imidazo[1,2-a]pyrazin-3-yl]-1,3-dihydrobenzimidazol-2-one]",1.26 nM
7,"O=c1ccc2cc(-c3c(-c4ccc(F)cc4)nc4c(N5CCOCC5)nccn34)ccc2[nH]1 [Example 125, 6-[2-(4-Fluorophenyl)-8-morpholino-imidazo[1,2-a]pyrazin-3-yl]-1H-quinolin-2-one]",39.8 nM
8,"CNc1nccn2c(-c3ccc4[nH]c(=O)[nH]c4c3)c(-c3ccc(F)cc3)nc12 [Example 104, 5-[2-(4-Fluorophenyl)-8-(methylamino)imidazo[1,2-a]pyrazin-3-yl]-1,3-dihydrobenzimidazol-2-one]",6.31 nM
9,"O=C1Cc2cc(-c3c(-c4ccc(F)cc4)nc4c(N5CC(O)(C(F)(F)F)C5)nccn34)ccc2N1 [Example 69, 5-[2-(4-Fluorophenyl)-8-[3-hydroxy-3-(trifluoromethyl)azetidin-1-yl]imidazo[1,2-a]pyrazin-3-yl]indolin-2-one]",1 nM
10,"CC(=O)N1CCCN(c2nccn3c(-c4ccc(O)cc4)c(-c4ccc(Cl)cc4)nc23)CC1 [Example 92, 1-[4-[2-(4-Chlorophenyl)-3-(4-hydroxyphenyl)imidazo[1,2-a]pyrazin-8-yl]-1,4-diazepan-1-yl]ethanone]",25.1 nM
11,"CC(=O)N1CCN(c2ncc(C)n3c(-c4ccc5c(c4)CC(=O)N5)c(Cc4ccccc4)nc23)CC1 [Example 114, 5-(8-(4-Acetylpiperazin-1-yl)-2-benzyl-5-methylimidazo[1,2-a]pyrazin-3-yl)indolin-2-one]",2 nM
12,"O=c1[nH]c2ccc(-c3c(-c4ccc(F)cc4)nc4c(N5CCOCC5)nccn34)cc2s1 [Example 118, 6-[2-(4-Fluorophenyl)-8-morpholino-imidazo[1,2-a]pyrazin-3-yl]-3H-1,3-benzothiazol-2-one]",0.316 nM
13,"O=C1Cc2cc(-c3c(-c4ccc(F)cc4)nc4c(N5CC(F)C5)nccn34)ccc2N1 [Example 59, 5-[8-(3-Fluoroazetidin-1-yl)-2-(4-fluorophenyl)imidazo[1,2-a]pyrazin-3-yl]indolin-2-one]",0.501 nM
14,"Fc1ccc(-c2nc3c(N4CC5(COC5)C4)nccn3c2-c2ccc3[nH]ncc3c2)cc1 [Example 25, 2-[2-(4-Fluorophenyl)-3-(1H-indazol-5-yl)imidazo[1,2-a]pyrazin-8-yl]-6-oxa-2-azaspiro[3.3]heptane]",7.94 nM
15,"Oc1ccc(-c2c(-c3ccc(F)cc3)nc3c(N4CCCC4)nccn23)cc1 [Example 126, 4-[2-(4-Fluorophenyl)-8-pyrrolidin-1-yl-imidazo[1,2-a]pyrazin-3-yl]phenol]",50.1 nM

# Second part, the molecule after the results:
row,IC50,SMILES
1,31.6 nM,"CC(C)Oc1nccc2c(-c3ccc4c(c3)CC(=O)N4)c(-c3ccccc3)nn12 [Example 194, 5-(7-Isopropoxy-2-phenyl-pyrazolo[1,5-c]pyrimidin-3-yl)indolin-2-one]"
2,0.126 nM,"Cc1cnc(N2CCOCC2)n2nc(-c3ccccc3)c(-c3ccc4c(c3)CC(=O)N4)c12 [Example 208, 5-(4-Methyl-7-morpholino-2-phenyl-pyrazolo[1,5-c]pyrimidin-3-yl)indolin-2-one]"
3,3.98 nM,"O=c1[nH]c2ccc(-c3c(-c4ccc(F)cc4)nc4c(N5CCOCC5)ncc(F)n34)cc2[nH]1 [Example 162, 5-[5-Fluoro-2-(4-fluorophenyl)-8-morpholino-imidazo[1,2-a]pyrazin-3-yl]-1,3-dihydrobenzimidazol-2-one]"
4,0.794 nM,"CN(C)c1nccn2c(-c3ccc4c(c3)CC(=O)N4)c(-c3ccc(F)cc3)nc12 [Example 141, 5-[8-(Dimethylamino)-2-(4-fluorophenyl)imidazo[1,2-a]pyrazin-3-yl]indolin-2-one]"
5,3.98 nM,"O=C(c1ccc(F)cc1)c1nc2c(N3CCOCC3)nccn2c1-c1ccc(O)cc1 [Example 149, (4-Fluorophenyl)(3-(4-hydroxyphenyl)-8-morpholinoimidazo[1,2-a]pyrazin-2-yl)methanone]"
6,1.26 nM,"O=C(c1ccccc1)c1nc2c(N3CCOCC3)nccn2c1-c1ccc2[nH]c(=O)oc2c1 [Example 156, 6-(2-Benzoyl-8-morpholino-imidazo[1,2-a]pyrazin-3-yl)-3H-1,3-benzoxazol-2-one]"
7,6.31 nM,"O=C1Cc2cc(-c3c(C(=O)Nc4ccccc4)nc4c(N5CCOCC5)nccn34)ccc2N1 [Example 137, 8-Morpholino-3-(2-oxoindolin-5-yl)-N-phenylimidazo[1,2-a]pyrazine-2-carboxamide]"
8,0.501 nM,"O=C1Cc2cc(-c3c(-c4ccc(F)cc4)nn4c(N5CCOCC5)nccc34)ccc2N1 [Example 164, 5-[2-(4-Fluorophenyl)-7-morpholino-pyrazolo[1,5-c]pyrimidin-3-yl]indolin-2-one]"
9,0.126 nM,"O=C1Cc2cc(-c3c(-c4ccc(F)cc4)nc4c(N5CCOCC5)ncc(Cl)n34)ccc2N1 [Example 163, 5-[5-Chloro-2-(4-fluorophenyl)-8-morpholino-imidazo[1,2-a]pyrazin-3-yl]indolin-2-one]"
10,3.98 nM,"Cc1cnc(N2CCOCC2)n2nc(C(C)C)c(-c3ccc4[nH]c(=O)sc4c3)c12 [Example 243, 6-(2-Isopropyl-4-methyl-7-morpholino-pyrazolo[1,5-c]pyrimidin-3-yl)-3H-1,3-benzothiazol-2-one]"
11,631 nM,"CCCNC(=O)c1nc2c(N3CCOCC3)nccn2c1-c1ccc(O)cc1 [Example 148, 3-(4-Hydroxyphenyl)-8-morpholino-N-propyl-imidazo[1,2-a]pyrazine-2-carboxamide]"
12,794 nM,"O=C1Cc2cc(-c3c(C4CCC4)nn4cnc(C(F)(F)F)cc34)ccc2N1 [Example 226, 5-[2-Cyclobutyl-5-(trifluoromethyl)pyrazolo[1,5-c]pyrimidin-3-yl]indolin-2-one]"
13,63.1 nM,"CC(C)c1nn2cnc(C(F)(F)F)cc2c1-c1ccc2[nH]c(=O)sc2c1 [Example 231, 6-[2-Isopropyl-5-(trifluoromethyl)pyrazolo[1,5-c]pyrimidin-3-yl]-3H-1,3-benzothiazol-2-one]"
14,39.8 nM,"O=C1Cc2cc(-c3c(-c4ccncc4)nc4c(N5CCC(O)CC5)nccn34)ccc2N1 [Example 215, 5-[8-(4-Hydroxy-1-piperidyl)-2-(4-pyridyl)imidazo[1,2-a]pyrazin-3-yl]indolin-2-one]"
15,126 nM,"COC1CCN(c2nccc3c(-c4ccc5[nH]ncc5c4)c(C(C)C)nn23)CC1 [Example 237, 3-(1H-indazol-5-yl)-2-isopropyl-7-(4-methoxy-1-piperidyl)pyrazolo[1,5-c]pyrimidine]"
16,63.1 nM,"O=C1Cc2cc(-c3c(C4CCCC4)nn4c(N5CCOCC5)nccc34)ccc2N1 [Example 203, 5-(2-Cyclopentyl-7-morpholino-pyrazolo[1,5-c]pyrimidin-3-yl)indolin-2-one]"
17,316 nM,"O=C(NC1CC1)c1nc2c(N3CCOCC3)nccn2c1-c1ccc2[nH]c(=O)[nH]c2c1 [Example 146, N-Cyclopropyl-8-morpholino-3-(2-oxo-1,3-dihydrobenzimidazol-5-yl)imidazo[1,2-a]pyrazine-2-carboxamide]"
